These results are taken from ChEMBL document CHEMBL1201862, “PubChem BioAssay data set” (2004).

In assay [1] the target is T1, Interleukin-8 (Homo sapiens, UniProt P10145). Description: Dose Response confirmation of uHTS small molecule hits for cystic fibrosis induced NFkb Inhibitors in a PAF-induced IL8 counterscreen. The class given is functional. The note with it: read-out: IC50_Mean.
For assay [2], the target named is T2, DNA repair and recombination protein RAD54-like (Homo sapiens, UniProt Q92698).
T2 sequence (Q92698 whole entry): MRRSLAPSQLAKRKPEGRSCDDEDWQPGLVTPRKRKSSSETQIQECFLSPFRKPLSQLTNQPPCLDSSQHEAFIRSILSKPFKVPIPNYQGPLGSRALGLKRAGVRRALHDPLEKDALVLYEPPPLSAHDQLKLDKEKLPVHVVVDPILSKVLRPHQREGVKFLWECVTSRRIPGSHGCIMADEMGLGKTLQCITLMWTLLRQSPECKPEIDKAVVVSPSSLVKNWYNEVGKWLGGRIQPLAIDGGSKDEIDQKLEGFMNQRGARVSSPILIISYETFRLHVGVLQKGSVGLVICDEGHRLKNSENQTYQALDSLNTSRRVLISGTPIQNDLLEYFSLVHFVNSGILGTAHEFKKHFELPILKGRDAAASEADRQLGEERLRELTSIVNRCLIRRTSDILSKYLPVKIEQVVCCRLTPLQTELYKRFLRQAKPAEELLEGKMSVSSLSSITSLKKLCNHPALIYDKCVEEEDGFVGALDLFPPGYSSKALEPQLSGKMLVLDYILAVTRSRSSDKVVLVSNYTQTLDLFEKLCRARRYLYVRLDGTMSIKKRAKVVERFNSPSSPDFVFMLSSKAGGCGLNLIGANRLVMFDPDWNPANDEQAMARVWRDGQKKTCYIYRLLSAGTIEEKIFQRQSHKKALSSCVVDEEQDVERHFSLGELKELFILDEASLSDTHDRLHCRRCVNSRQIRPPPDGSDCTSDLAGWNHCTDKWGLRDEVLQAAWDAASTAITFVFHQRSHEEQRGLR
Description: RAD54 Holliday junction migration blockers – biochemical, fluorescence, cherry-picked samples, dose series, confirmation (AID 651657). The class given is functional.

For assay [3], the target named is Kallikrein-7 (Homo sapiens, UniProt P49862). The experiment in a line: Fluorescence Intensity-based biochemical primary high throughput dose response assay to identify activators of kallikrein-7 (K7) zymogen.
The target in assay [4] is T1, Interleukin-8. Description: Dose Response confirmation of uHTS small molecule hits for cystic fibrosis induced NFkb Inhibitors in a TNFa-induced IL8 counterscreen. The class given is functional. As to conditions: read-out: IC50_Mean. A general note: The purpose of a counterscreen is to sort out artefacts and off-target activity.
Assay [5] deals with DNA (cytosine-5)-methyltransferase 1 (Homo sapiens, UniProt P26358). The experiment in a line: inhibition of DNA methylation by DNMT1 – biochemical, fluorescent molecular beacon, confirmation (AID 602386). The class given is functional.
Assay [6] concerns the target Albumin (Bos taurus, UniProt P02769). The experiment in a line: Counterscreen for inhibitors of T-cell receptor (TCR)-CD3 interaction: Fluorescence-based biochemical high throughput dose response assay to identify inhibitors of T-cell receptor (TCR)-CD3 interaction using a TAMRA-labeled BSA probe. The class given is functional.
Assay [7] has as its target T3, Probable nicotinate-nucleotide adenylyltransferase (Staphylococcus aureus (strain N315), UniProt P65502). The class given is functional, Staphylococcus aureus subsp. aureus N315.
In assay [8] the target is T3, Probable nicotinate-nucleotide adenylyltransferase. The assay is classed as functional, Staphylococcus aureus subsp. aureus N315. The note with it: read-out: IC50_Mean.
A short description of assay [9]: A Cell Based Secondary Assay to Explore Cytotoxicity in HepG2 Cells of Compounds that Modulate Mycobacterium tuberculosis in Media Containing Glycerol versus Media without Glycerol (2). The assay is classed as functional.
Assay [10] can be described thus: microbe, parasite or virus in culture. As to conditions: Mycobacterium tuberculosis. The class given is functional.
The target of assay [11] is Hepatocyte nuclear factor 4-alpha (Homo sapiens, UniProt P41235). The class given is functional, cell-based.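 Also: biochemical luminescence-based dose-response counterscreen measuring inhibition of HNF4 dimerization, run alongside a screen for blockers of ABHD5–perilipin-5 interaction; split luciferase complementation of HNF4 fusion proteins in cell lysate measuring dimerization.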
Assay [12] in a line: A Cell Based Secondary Assay to Explore Cytotoxicity in THP-1 Cells of Compounds that Modulate Mycobacterium tuberculosis in Media Containing Glycerol versus Media without Glycerol (2). The assay is classed as functional.
Assay [13] deals with Neurotensin receptor type 1 (Homo sapiens, UniProt P30989). The class given is functional.
Assay [14] deals with Heat shock protein HSP 90-alpha (Homo sapiens, UniProt P07900). The assay is classed as functional, organism-based.
Assay [15] is described as follows: Vero cell cytotoxicity, cytotoxicity control for M. tuberculosis inhibitor project, purified and synthesized samples, set 3 (AID 504684). The class given is functional. As to conditions: […].
A short description of assay [16]: bead-based luminescence quenchers, dual-tagged ARNT – biochemical, AlphaScreen, cherry-pick, artefact control for ARNT-TACC3 interaction inhibitor project, dose response (AID 651705).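 Also: AlphaScreen bead proximity signal that flags compounds interfering with the detection technology; potency reflects signal decrease which marks the compound as an assay artifact.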 The class given is functional. Background: In Alpha technology, singlet oxygen from a donor bead excites a nearby acceptor bead.
Assay [17] is described as follows: IC50 of Artemis nuclease activity blockers – biochemical, fluorescence intensity, dose response (AID 720701).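 Also: Artemis endonuclease enzyme.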 The assay is classed as functional.
A short description of assay [18]: non-specific 3'UTR reporter inhibition in Clone20-Shn3RL – cell-based, Renilla luciferase, cherry-picked, counter-screen for Shn3 inhibitor project, dose response (AID 624133). The assay is classed as functional.
Assay [19] deals with Beta Lactamase (Pseudomonas aeruginosa, UniProt Q932Y6). The experiment in a line: BLA reporter interference, concentration series – BLA reporter cells, FRET fluorescence, artefact control for NOD2-RIPK2 interaction inhibitor project, dose response (AID 651552). The assay is classed as functional, cell-based.
Assay [20] is described as follows: general cell-killing toxicity readout – plate reader, dry powder samples, cytotoxicity control for PAX8 inhibitor project, dose response (AID 743021). The class given is functional, cell-based.
Assay [21] concerns the target Paired box protein Pax-8 (Homo sapiens, UniProt Q06710). The experiment in a line: PAX8 transcriptional activity inhibition in RMG-I – RMG-I cells, luciferase, cherry-pick, dose response (AID 687027).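 Also: luciferase reporter driven by Pax8 target thyroperoxidase promoter measured by SteadyGlo luminescence.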 The assay is classed as functional, cell-based.
The test system of assay [22] is HEK293. The experiment in a line: cells. As to conditions: Homo sapiens.
The nature of assay [23]: reduction of Shn3 3'UTR-driven luciferase in osteoblasts – cell-based, Clone20 osteoblasts, firefly luciferase, cherry-picked, dose response (AID 624132).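 Also: firefly luciferase luminescence from reporter carrying the Shn3 3'UTR in osteoblasts.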 The assay is classed as functional.
Assay [24] in a line: loss of viability in HepG2 cells – cell-based, CellTiter-Glo, cherry-picked, cytotoxicity control for Shn3 inhibitor project, dose response (AID 624134). The class given is functional. In general terms: Cellular ATP, detected with luciferase, serves as a proxy for viable cell number.
Assay [25] is described as follows: Fluorescence-based cell-based high throughput dose response assay for inhibitors of the interaction of nucleotide-binding oligomerization domain containing 2 (NOD2) and the receptor-interacting serine-threonine kinase 2 (RIPK2). The assay is classed as functional. The note with it: Homo sapiens.
In assay [26] the target is Beta-galactosidase (Escherichia coli, UniProt Q8VNN2). The experiment in a line: detection-enzyme interference by beta-gal modulators – biochemical, E. coli enzyme, set 3, artefact control for CCR6 antagonist project, dose response (AID 504712). The assay is classed as functional.
In assay [27] the test system is HEK293. Description: cells. As to conditions: Homo sapiens. This is another data set of the same source.
A short description of assay [28]: Luminescence Cell-Based Dose Response HTS to Identify Activators of Luciferase Translation or Activity in H4 […] Cells. [Related pubchem assays: 1829 (Project Summary), 1814 (Primary HTS)]. The class given is functional.
Assay [29] is described as follows: Counterscreen for activators of the function of SWI/SNF related, matrix associated, actin dependent regulator of chromatin, subfamily a, member 2 (SMARCA2, BRM): Luminescence-based cell-based high throughput dose response assay to identify non-selective compounds using the VP16 reporter assay. The assay is classed as functional.
The test system of assay [30] is H4. The experiment in a line: Luminescence Cell-Based Dose Response HTS to Identify Activators of 5'UTR Stem-Loop Driven Prion Protein mRNA Translation in H4 Neuroglioblastoma Cells. [Related pubchem assays: 1829 (Project Summary), 1814 (Primary HTS)]. The class given is functional. The note with it: Homo sapiens.
The target in assay [31] is SWI/SNF-related matrix-associated actin-dependent regulator of chromatin subfamily A member 2 (Homo sapiens, UniProt P51531). The experiment in a line: Luminescence-based cell-based high throughput dose response assay to identify activators of the function of SWI/SNF related, matrix associated, actin dependent regulator of chromatin, subfamily a, member 2 (SMARCA2, BRM). The assay is classed as functional.

Assay [32] is described as follows: Luminescence Cell-Based Dose Confirmation HTS to Identify Activators of 5'UTR Stem-Loop Driven Alpha-Synuclein mRNA Translation in H4 Neuroglioblastoma Cells. [Related pubchem assays: 1829 (Project Summary), 1814 (Primary HTS)]. The assay is classed as functional.
The target of assay [33] is T4, DNA repair protein RAD52 homolog (Homo sapiens, UniProt P43351).
T4 sequence (P43351 whole entry): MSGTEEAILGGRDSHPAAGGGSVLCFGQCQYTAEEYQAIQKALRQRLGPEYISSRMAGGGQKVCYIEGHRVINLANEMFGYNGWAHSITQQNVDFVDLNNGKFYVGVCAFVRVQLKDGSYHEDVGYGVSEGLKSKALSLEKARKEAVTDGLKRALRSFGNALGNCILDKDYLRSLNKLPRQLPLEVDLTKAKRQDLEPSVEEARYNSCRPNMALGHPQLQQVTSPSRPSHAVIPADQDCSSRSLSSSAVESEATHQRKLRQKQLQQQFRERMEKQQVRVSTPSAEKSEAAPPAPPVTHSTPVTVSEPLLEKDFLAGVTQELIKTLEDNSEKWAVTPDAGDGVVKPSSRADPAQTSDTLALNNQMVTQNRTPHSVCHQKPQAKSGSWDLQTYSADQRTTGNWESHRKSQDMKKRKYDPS
The class given is functional, biochemical.

The nature of assay [34]: acridine orange displacement from DNA – biochemical, fluorescence polarization, cherry-pick, artefact control for RAD54 inhibitor project, dose response (AID 651673). The assay is classed as functional.

The structures appear in SMILES notation. Structures can show the parent of a compound that is named as a salt. Activity calls are given as the source filed them. Some results are limits rather than exact numbers.

T1 sequence (P10145 whole entry): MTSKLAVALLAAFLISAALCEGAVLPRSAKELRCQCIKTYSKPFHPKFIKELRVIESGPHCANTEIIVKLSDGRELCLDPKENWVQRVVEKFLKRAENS
Chain of Kallikrein-7 (P49862 whole entry): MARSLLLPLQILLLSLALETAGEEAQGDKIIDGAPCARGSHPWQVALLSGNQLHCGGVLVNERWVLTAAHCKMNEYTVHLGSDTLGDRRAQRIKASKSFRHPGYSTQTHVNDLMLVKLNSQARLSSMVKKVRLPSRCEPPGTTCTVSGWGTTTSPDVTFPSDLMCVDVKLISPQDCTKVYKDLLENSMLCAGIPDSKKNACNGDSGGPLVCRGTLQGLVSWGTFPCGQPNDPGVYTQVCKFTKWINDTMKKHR
T3 sequence (P65502 whole entry): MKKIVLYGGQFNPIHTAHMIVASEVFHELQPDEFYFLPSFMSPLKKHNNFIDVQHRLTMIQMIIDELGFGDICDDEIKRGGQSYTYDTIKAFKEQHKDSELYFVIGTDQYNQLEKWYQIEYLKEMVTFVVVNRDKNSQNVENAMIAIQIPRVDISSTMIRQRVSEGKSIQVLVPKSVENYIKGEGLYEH
Chain of Beta Lactamase (Q932Y6 whole entry): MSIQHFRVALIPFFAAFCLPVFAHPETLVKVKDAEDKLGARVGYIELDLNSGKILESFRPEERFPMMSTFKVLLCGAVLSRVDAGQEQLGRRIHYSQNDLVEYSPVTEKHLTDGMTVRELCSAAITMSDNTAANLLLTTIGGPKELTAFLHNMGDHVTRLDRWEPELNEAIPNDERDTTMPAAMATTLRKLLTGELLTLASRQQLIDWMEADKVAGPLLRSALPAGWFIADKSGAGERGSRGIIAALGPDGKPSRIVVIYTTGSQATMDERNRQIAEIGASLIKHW
Chain of Albumin (P02769 whole entry): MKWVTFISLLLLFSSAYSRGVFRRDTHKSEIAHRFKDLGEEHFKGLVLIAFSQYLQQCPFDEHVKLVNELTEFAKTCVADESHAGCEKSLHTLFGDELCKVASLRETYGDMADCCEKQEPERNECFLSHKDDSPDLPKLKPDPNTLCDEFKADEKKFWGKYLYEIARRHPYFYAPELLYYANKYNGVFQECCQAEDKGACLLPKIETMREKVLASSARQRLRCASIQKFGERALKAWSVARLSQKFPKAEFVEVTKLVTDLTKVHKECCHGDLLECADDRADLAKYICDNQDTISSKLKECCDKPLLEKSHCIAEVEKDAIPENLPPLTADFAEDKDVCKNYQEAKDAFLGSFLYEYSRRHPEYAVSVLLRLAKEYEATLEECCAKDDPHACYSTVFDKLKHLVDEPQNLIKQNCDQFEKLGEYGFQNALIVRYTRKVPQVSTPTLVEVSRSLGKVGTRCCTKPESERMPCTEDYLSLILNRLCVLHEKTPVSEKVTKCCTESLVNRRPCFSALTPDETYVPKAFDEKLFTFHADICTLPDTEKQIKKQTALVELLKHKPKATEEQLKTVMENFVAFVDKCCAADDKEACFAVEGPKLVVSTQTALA
Chain of DNA (cytosine-5)-methyltransferase 1 (P26358 whole entry): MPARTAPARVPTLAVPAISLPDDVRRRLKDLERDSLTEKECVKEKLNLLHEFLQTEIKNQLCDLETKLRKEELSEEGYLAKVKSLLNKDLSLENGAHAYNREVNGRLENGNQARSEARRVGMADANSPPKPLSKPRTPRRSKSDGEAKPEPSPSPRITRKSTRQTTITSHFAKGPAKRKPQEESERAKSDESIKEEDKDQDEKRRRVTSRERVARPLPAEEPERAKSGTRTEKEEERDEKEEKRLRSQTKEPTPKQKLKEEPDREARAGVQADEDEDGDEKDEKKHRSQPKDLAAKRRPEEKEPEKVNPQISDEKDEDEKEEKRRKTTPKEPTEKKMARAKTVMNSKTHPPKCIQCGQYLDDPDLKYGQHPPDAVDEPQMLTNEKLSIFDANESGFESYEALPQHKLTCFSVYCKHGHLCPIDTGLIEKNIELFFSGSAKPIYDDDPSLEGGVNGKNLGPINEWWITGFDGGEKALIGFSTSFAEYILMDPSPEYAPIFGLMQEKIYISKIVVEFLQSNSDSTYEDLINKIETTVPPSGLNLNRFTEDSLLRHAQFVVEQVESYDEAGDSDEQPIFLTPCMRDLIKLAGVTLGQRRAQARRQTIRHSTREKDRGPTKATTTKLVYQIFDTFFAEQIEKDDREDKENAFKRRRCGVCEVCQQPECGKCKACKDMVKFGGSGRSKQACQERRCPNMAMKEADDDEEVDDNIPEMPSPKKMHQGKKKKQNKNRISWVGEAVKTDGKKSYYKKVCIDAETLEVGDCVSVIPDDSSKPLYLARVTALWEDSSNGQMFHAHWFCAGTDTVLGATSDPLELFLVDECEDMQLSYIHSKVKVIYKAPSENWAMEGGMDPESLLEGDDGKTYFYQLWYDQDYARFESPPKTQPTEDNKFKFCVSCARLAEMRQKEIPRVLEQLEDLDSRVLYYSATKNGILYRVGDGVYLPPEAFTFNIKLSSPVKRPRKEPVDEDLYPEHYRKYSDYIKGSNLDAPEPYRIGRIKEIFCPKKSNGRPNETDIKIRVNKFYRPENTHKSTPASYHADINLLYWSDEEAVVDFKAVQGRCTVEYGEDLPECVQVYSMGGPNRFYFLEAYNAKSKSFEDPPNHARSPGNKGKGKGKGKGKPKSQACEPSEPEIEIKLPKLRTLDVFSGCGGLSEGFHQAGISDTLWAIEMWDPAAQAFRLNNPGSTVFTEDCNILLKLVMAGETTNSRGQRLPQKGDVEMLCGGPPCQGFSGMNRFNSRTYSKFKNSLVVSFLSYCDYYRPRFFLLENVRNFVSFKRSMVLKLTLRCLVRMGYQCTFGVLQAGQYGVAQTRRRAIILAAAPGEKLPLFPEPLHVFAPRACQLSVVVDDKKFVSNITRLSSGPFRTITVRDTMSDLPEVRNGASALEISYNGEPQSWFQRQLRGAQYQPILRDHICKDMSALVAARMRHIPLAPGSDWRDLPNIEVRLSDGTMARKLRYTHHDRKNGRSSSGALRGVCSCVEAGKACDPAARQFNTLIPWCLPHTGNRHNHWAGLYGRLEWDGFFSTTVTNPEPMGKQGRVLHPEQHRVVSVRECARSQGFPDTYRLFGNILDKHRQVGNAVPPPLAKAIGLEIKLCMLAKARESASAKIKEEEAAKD
Chain of Beta-galactosidase (Q8VNN2 whole entry): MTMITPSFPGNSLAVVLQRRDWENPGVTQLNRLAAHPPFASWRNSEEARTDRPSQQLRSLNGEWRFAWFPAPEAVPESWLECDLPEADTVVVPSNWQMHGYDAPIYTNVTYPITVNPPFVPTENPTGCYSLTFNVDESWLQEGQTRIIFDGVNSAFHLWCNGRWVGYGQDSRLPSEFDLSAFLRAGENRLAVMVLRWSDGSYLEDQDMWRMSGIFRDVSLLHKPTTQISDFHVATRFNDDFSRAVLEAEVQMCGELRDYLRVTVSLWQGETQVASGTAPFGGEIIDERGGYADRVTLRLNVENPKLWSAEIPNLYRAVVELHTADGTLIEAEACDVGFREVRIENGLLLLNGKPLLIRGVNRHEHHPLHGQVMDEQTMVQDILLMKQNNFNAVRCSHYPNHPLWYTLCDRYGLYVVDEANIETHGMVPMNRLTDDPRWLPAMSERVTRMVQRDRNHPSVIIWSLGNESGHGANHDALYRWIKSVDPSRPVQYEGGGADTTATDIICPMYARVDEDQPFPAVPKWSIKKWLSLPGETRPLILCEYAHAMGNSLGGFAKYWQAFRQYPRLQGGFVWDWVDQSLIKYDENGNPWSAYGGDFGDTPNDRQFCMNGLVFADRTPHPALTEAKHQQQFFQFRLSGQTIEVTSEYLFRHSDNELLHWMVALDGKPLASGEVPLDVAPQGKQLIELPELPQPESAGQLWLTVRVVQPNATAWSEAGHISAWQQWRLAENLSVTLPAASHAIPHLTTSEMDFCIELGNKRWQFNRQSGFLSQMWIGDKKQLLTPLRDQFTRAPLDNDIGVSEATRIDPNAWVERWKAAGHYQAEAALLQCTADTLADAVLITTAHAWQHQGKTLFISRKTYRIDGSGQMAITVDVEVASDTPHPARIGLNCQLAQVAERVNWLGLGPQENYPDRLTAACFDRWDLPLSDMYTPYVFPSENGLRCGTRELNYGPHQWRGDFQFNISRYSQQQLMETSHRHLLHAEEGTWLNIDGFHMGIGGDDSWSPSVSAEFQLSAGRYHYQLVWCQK
Chain of Hepatocyte nuclear factor 4-alpha (P41235 whole entry, the tested form may be a part): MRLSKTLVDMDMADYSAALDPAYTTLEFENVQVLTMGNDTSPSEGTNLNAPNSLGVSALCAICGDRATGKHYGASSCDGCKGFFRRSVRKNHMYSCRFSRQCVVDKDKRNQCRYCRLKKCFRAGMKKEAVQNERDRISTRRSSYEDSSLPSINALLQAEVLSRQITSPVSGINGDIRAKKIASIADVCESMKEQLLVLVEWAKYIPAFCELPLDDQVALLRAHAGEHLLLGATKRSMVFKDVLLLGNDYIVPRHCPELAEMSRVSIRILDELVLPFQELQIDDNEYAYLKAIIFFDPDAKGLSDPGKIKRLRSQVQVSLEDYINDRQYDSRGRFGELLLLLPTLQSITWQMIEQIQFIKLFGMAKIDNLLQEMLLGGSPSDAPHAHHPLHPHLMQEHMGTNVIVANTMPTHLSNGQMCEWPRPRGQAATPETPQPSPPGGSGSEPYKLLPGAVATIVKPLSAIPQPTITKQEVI
Chain of Paired box protein Pax-8 (Q06710 whole entry): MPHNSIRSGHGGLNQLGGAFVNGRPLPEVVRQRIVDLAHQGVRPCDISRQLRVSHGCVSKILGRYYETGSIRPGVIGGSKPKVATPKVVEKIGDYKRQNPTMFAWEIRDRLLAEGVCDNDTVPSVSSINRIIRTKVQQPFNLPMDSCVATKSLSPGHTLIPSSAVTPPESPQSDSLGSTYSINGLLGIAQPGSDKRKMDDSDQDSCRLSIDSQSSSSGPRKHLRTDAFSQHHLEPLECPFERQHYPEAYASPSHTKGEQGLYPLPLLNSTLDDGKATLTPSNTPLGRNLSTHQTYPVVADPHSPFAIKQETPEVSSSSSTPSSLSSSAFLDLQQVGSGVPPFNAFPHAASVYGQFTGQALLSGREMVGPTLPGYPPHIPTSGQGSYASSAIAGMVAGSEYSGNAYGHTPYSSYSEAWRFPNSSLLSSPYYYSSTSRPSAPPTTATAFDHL

One may read the AC50 as the concentration giving half of the maximal activity seen. By EC50 is commonly meant the midpoint of the concentration-response curve. With `COc1ccc2c(c1)[nH]c1c(C)nccc12` [HARMINE HYDROCHLORIDE], the values for the IC50 in assay [1] and in assay [4] were 6.96 µM (active) and > 79 µM (inactive), respectively. The AC50 in assay [2] is 14.4 µM (active). Further, the EC50 in assay [3] was 24.8 µM (inactive).

Turning to `COC(=O)C1CCN(C(=O)c2cc(-c3ccco3)nc3ccccc23)CC1`, the IC50 in assay [5] was 7.31 µM (active); in assay [6], > 94.1 µM (inactive); in assay [7] it was 18.8 µM (active); in assay [8] it was 44.6 µM (active). For the same compound, the EC50 in [3] was > 69.5 µM (inactive).

Consider `COC(=O)c1cc(=O)n(-c2ccc(F)cc2)/c(=N/c2ccc(F)cc2)s1`, for which the CC50 in [9] is 24.1 µM (active); in assay [10], 13.9 µM (active); in [12] it was 21.5 µM (active); in [15] it was 12.9 µM (active). In addition, the IC50 in assay [11] is 4.1 µM (active). Besides, the EC50 in assay [13] is 11.1 µM (active). Moreover, in [14], the concentration at half-maximal activity (AC50) is 8.18 µM (active).

Consider `Cc1ccc(Nc2nc(N)nc(CN3CCCCCC3)n2)cc1`, for which the half-maximal activity concentration (AC50) in assay [16] is 117 µM (active). In assay [17], the IC50 was > 20 µM (inactive).

For `C=C1CC(Cn2cc(Br)c(=O)[nH]c2=O)(c2ccc(-c3ccccc3)cc2)OC1=O` (stereo unspecified), the concentration at half-maximal activity (AC50) was 4.16 µM (active) in assay [18]; 55.6 µM (active) in assay [20]; 6.49 µM (active) in assay [21]; 2.67 µM (active) in [23]; 13.6 µM (active) in [24]. Besides, the IC50 in assay [19] was 12.2 µM (inactive); in assay [25], 2.2 µM (active); in assay [26], > 66.6 µM (inactive). For the same compound, the EC50 in assay [22] and in assay [27] was > 59.7 µM (inactive) in each case.

Regarding `CCN(CC)CCn1c2ccccc2c2nc3ccccc3nc21`, the EC50 in [28] was 15.1 µM (active); in assay [29] it was > 91.1 µM (inactive); in assay [30], 29.6 µM (active); in [31], 10.1 µM (inactive); in assay [32] it was 31.8 µM (active). In addition, the figures for the concentration at half-maximal activity (AC50) in assay [2], in assay [33] and in [34] were 7.12 µM (active), 3.27 µM (active) and 64 µM (active), respectively.
